According to US20080114168A1, “Novel esters as useful broad spectrum herbicidal compounds” (priority 2004, published 2008):

Legend:
[1] = test system: grasses; assay: herbicidal activity against grasses, applied in aqueous solution; assay type: in vivo; conditions: applied in an aqueous solution at 500-2000 ppm
[2] = test system: broad leaved weeds; assay: herbicidal activity against broad leaved weeds, applied in aqueous solution; assay type: in vivo; conditions: applied in an aqueous solution at 500-2000 ppm
[3] = test system: glufosinate-resistant corn; assay: crop selectivity; assay type: in vivo; conditions: aqueous solution at 500-2000 ppm
[4] = general herbicidal character (selective or non-selective); conditions: in vivo

| Structure (SMILES) | herbicidal activity against grasses [1] | herbicidal activity against broad leaved weeds [2] | selectivity to crop [3] | herbicide selectivity (general) [4] |
| --- | --- | --- | --- | --- |
| CP(=O)(O)CCC(N)C(=O)Oc1cc(Cl)nnc1-c1ccccc1 (racemic) [Example 1, 6-chloro-3-phenylpyridazin-4-yl 4-[hydroxyl(methyl)phosphinoyl]-DL-alaninate] | active | active | selective |  |
| CP(=O)(O)CCC(N)C(=O)Oc1c(Cl)cnc(Cl)c1Cl (racemic) [Example 2] | active | active |  | powerful non-selective herbicide |
